In patent US7211566B2 (Universite De Sherbrooke, priority 2003, dated 2007):

Tests used:
[1] = blood; details: rat, 37° C., up to 4 hours
[2] = serum; details: rat, 37° C., up to 4 hours
[3] = plasma; details: rat, 37° C., up to 4 hours
[4] = human plasma as a source of aminopeptidase M (AmM); details: up to 60 min
[5] = test system: angiotensin converting enzyme (ACE); assay: Purified ACE from rabbit lungs (Sigma, St. Louis, Mo.) dissolved in PBS (50 mM, pH 7.5, containing 300 mM NaCl and 10 μM ZnCl2); details: 37° C., up to 60 min
[6] = test system: aminopeptidases; details: cited from earlier work
[7] = test system: carboxypeptidases of the M type (CPM); details: cited from earlier work
[8] = test system: carboxypeptidases of the N type (CPN); details: cited from earlier work
[9] = molecular target: T1, BKB1 receptor (Homo sapiens, UniProt P46663); details: Gobeil et al. 1996; cited from earlier work
T1 sequence (P46663 1-353): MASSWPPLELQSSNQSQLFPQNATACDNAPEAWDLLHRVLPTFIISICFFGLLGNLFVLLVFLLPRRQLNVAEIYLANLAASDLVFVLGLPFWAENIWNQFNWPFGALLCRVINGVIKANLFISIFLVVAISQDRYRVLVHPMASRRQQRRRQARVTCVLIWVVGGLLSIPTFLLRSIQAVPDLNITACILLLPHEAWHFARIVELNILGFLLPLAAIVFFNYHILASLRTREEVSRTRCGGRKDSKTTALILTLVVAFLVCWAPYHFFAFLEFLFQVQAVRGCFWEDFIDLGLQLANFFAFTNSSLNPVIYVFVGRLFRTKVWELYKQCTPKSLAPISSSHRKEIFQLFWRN

[10] = test system: STZ diabetic mice; assay: Hot plate test, type-1 diabetic hyperalgesia; type: in vivo; details: 400 μg/kg i.p.
Procedure: (§1) Male CD-1 mice weighting between 25–30 g (Charles River Breeding Laboratory, St-Constant, QC, Canada) were used. The mice were housed four by cage with free access to food and water. They were maintained under conditions of standard lighting, (alternating 12-h light/dark cycle), temperature (22±0.5° C.) and humidity (60±10%) with food and water available at libitum. Animals were used only once in a given experiment. Experiments were conducted between 10:00 and 18:00 h.
(§2) Streptozotocin (Pharmacia & Upjohn Incorporation, Mississauga, ON, Canada) was dissolved in saline at a pH of 4.5 and administered to mice i.p. The BKB1 agonist desArg^9BK and compound c were dissolved in saline and administered to mice i.p.
(§3) Insulin-dependent diabetes mellitus (IDDM) was induced in mice using STZ. Male CD-1 mice were given a single high i.p. dose of STZ (200 mg/kg) (McEvoy et al., 1984, J Clin Invest 74, 715–722). […] Blood glucose levels were determined with an automatic analyzer (Glucometer Elite XL, Bayer Incorporation, Toronto, Ontario, Canada) using glucose oxidase/potassium ferricyanide reagent strips. […]
The hot plate test was adapted from the technique of Eddy and Leimbach (1953, J Pharmacol Exp Ther 107, 385–389). […] When the pain threshold is reached the animal starts to react by licking its hind paw or to jump, and the reaction time is recorded with a built-in timer, with a maximum cut-off time of 30 s to avoid tissue damage. […]
(§4) The effect of the selected drugs on nociception was determined by converting the hot plate, the plantar stimulation, the tail immersion or the tail flick responses from latencies into MPE (Maximum Percent Effect) according to the following equation (Bhargava and Zhao, 1996, Neuropeptides, 30, 219–223): […]
(§5) In all tests, pre-treatment latencies were determined three times with an interval of 24 h starting three days before the injection of STZ or saline and the mean was calculated in order to obtain stable pre-drug response latency. […]

[11] = test system: STZ diabetic mice; assay: Plantar stimulation test, type-1 diabetic hyperalgesia; type: in vivo
Procedure: as §1, with “h. […]” for “h.”
(§6) Insulin-dependent diabetes mellitus (IDDM) was induced in mice using STZ. […] Blood glucose levels were determined with an automatic analyzer (Glucometer Elite XL, Bayer Incorporation, Toronto, Ontario, Canada) using glucose oxidase/potassium ferricyanide reagent strips. […]
In the plantar stimulation test, the method of Hargreaves et al. (Hargreaves et al., 1988, Pain, 32, 77–88) was used to access the hind-paw nociceptive withdrawal thresholds of a free moving mouse to thermal stimuli. […] Each latency value was determined from two applications of the radiant heat stimulus, separated by 1–2 min intervals, and the mean of the two measures is taken. […]
as §5

[12] = test system: STZ diabetic mice; assay: Tail immersion test, type-1 diabetic hyperalgesia; type: in vivo
Procedure: as §1, with “h. […]” for “h.”
as §6
The tail-immersion test was performed according to Coderre and Rollman (Coderre and Rollman, 1983, Life Sci 32, 2139–2146). […] The latency between submersion of the tail and its removal from the water by the animal was recorded, with a maximum cut-off time of 10 seconds to minimize tail skin tissue damage. […]
as §4

[13] = test system: STZ diabetic mice; assay: Tail flick test, type-1 diabetic hyperalgesia; type: in vivo
Procedure: as §1, §2, §3
The tail flick test of D'Amour and Smith (D'Amour and Smith, 1941, J Pharmacol Exp Ther 72, 74–79) modified for mice was used. […] The radiant light is focussed on a blackened spot in the mid region of the animal's tail (2–3 cm from the tip of the tail) and the latency between the application of the stimulation light and the flicking of the animal's tail is recorded. When the animal flicks its tail, its exposes a photocell in the apparatus immediately below the tail and the instrument is automatically stopped and the time is recorded. […]
as §4

Substance: Ac-Orn[Oic^2,(α-Me)Phe^5,D-βNal^7,Ile^8]desArg^9BK
- not cleaved [1]: >90% parent remaining after 4 hours
- not cleaved [2]: >90% parent remaining after 4 hours
- not cleaved [3]: >90% parent remaining after 4 hours
- not cleaved [4]: Peptide metabolism 0 % (60 min)
- not cleaved [5]: Peptide metabolism 0 % (60 min)

Substance: Lys Arg Pro Pro Gly Phe Ser Pro Phe Arg
- fragment found [6]: BK
- cleaved bond [7]: Phe8-Arg9
- cleaved bond [8]: Phe8-Arg9

Substance: Lys-desArg^9BK (KRPPGFSPF; Lys - des-Arg9 Bradykinin) [BKB1 receptor agonist]
- potency relative to desArg^9BK [9]: 100 fold

Substance: desArg^9BK
- potentiation of hyperalgesic response ([10]; STZ diabetic mice): 98%
- change in nociceptive response ([10]; control mice): did not induce significant changes
- MPE ([11]; STZ diabetic mice, 400 μg/kg i.p., 20 min after injection): −21.03±0.75%
- change in nociceptive response ([11]; healthy mice): did not induce significant changes
- MPE ([12]; STZ diabetic mice, i.p., 20 min after administration): −19.23±0.60%
- change in tail immersion latencies ([12]; control mice): did not show significant changes
- potentiating effect on hyperalgesic activity ([13]; STZ diabetic mice, maximal after 10 min): 48%
- change in tail flick test ([13]; control mice, 400 μg/kg i.p.): did not induce significant changes
